Tested on: c-myc in 22RV-1 cells
Assay: Human c-myc ELISA assay
Type: cell-based
Conditions: Homo sapiens; for Emax: 22Rv1, 18 h, read-out: Degradation of BRD4: Maximum inhibition (%) c-Myc ELISA in 22RV1 cells; for DC50: 22Rv1, read-out: Degradation of BRD4: DC50 (uM) c-Myc ELISA in 22RV1 cells
Outline: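 c-myc levels measured by ELISA in RIPA lysates of 22RV-1 cells, calibrated with a 333-0 pg/ml standard curve. Lysates came from cells exposed for 18 h to an 8-point, 1:3 dose series starting at 300 nM or 1 μM final in 0.1% DMSO. Suppression potency given as DC50.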

| Structure (SMILES) | DC50 [µM] | Emax [%] |
| --- | --- | --- |
| Cc1ncsc1-c1ccc([C@H](C)NC(=O)[C@@H]2C[C@@H](O)CN2C(=O)[C@@H](NC(=O)/C=C/c2ccc(F)c(O[C@@H](C)CNC(=O)C[C@@H]3N=C(c4ccc(Cl)cc4)c4c(sc(C)c4C)-n4c(C)nnc43)c2)C(C)(C)C)cc1 [Example 160] | < 0.01 | 94.5 |
| Cc1ncsc1-c1ccc(CNC(=O)[C@@H]2C[C@@H](O)CN2C(=O)[C@@H](NC(=O)c2cccc(CCOCCNC(=O)C[C@@H]3N=C(c4ccc(Cl)cc4)c4c(sc(C)c4C)-n4c(C)nnc43)n2)C(C)(C)C)cc1 [Example 164] | 0.01 to 0.1 | 96 |
| Cc1ncsc1-c1ccc([C@H](C)NC(=O)[C@@H]2C[C@@H](O)CN2C(=O)[C@@H](NC(=O)c2cc3cc(OCCNC(=O)C[C@@H]4N=C(c5ccc(Cl)cc5)c5c(sc(C)c5C)-n5c(C)nnc54)ccc3o2)C(C)(C)C)cc1 [Example 165, (2S,4R)-1-[(2S)-2-{[5-(2-{2-[(9S)-7-(4-chlorophenyl)-4,5,13-trimethyl-3-thia-1,8,11,12-tetraazatricyclo[8.3.0.0^2,^6]trideca-2(6),4,7,10,12-pentaen-9-yl]acetamido}ethoxy)-1-benzofuran-2-yl]formamido}-3,3-dimethylbutanoyl]-4-hydroxy-N-[(1S)-1-[4-(4-methyl-1,3-thiazol-5-yl)phenyl]ethyl]pyrrolidine-2-carboxamide] | < 0.01 | 97 |
| Cc1ncsc1-c1ccc(CNC(=O)[C@@H]2C[C@@H](O)CN2C(=O)[C@@H](C(C)C)n2cc(-c3ccnc(O[C@H](C)CNC(=O)C[C@@H]4N=C(c5ccc(Cl)cc5)c5c(sc(C)c5C)-n5c(C)nnc54)c3)cn2)cc1 [Example 167] | > 1 | 27.6 |
| Cc1ncsc1-c1ccc(CNC(=O)[C@@H]2C[C@@H](O)CN2C(=O)[C@H](C(C)C)n2cc(-c3ccnc(O[C@H](C)CNC(=O)C[C@@H]4N=C(c5ccc(Cl)cc5)c5c(sc(C)c5C)-n5c(C)nnc54)c3)cn2)cc1 [Example 168] | 0.01 to 0.1 | 92 |
| Cc1ncsc1-c1ccc([C@H](C)NC(=O)[C@@H]2C[C@@H](O)CN2C(=O)[C@@H](NC(=O)c2cc3cc(OCCCNC(=O)C[C@@H]4N=C(c5ccc(Cl)cc5)c5c(sc(C)c5C)-n5c(C)nnc54)ccc3o2)C(C)(C)C)cc1 [Example 170, (2S,4R)-1-[(2S)-2-{[5-(3-{2-[(9S)-7-(4-chlorophenyl)-4,5,13-trimethyl-3-thia-1,8,11,12-tetraazatricyclo[8.3.0.0^2,^6]trideca-2(6),4,7,10,12-pentaen-9-yl]acetamido}propoxy)-1-benzofuran-2-yl]formamido}-3,3-dimethylbutanoyl]-4-hydroxy-N-[(1S)-1-[4-(4-methyl-1,3-thiazol-5-yl)phenyl]ethyl]pyrrolidine-2-carboxamide] | < 0.01 | 97 |
| Cc1ncsc1-c1ccc([C@H](C)NC(=O)[C@@H]2C[C@@H](O)CN2C(=O)[C@@H](NC(=O)CCc2cc(F)cc(O[C@H]3C[C@H](NC(=O)C[C@@H]4N=C(c5ccc(Cl)cc5)c5c(sc(C)c5C)-n5c(C)nnc54)C3)c2)C(C)(C)C)cc1 [Example 173, (2S,4R)-1-[(2S)-2-(3-{3-fluoro-5-[(1,3-trans)-3-{2-[(9S)-7-(4-chlorophenyl)-4,5,13-trimethyl-3-thia-1,8,11,12-tetraazatricyclo[8.3.0.0^2,^6]trideca-2(6),4,7,10,12-pentaen-9-yl]acetamido}cyclobutoxy]phenyl}propanamido)-3,3-dimethylbutanoyl]-4-hydroxy-N-[(1S)-1-[4-(4-methyl-1,3-thiazol-5-yl)phenyl]ethyl]pyrrolidine-2-carboxamide] | < 0.01 | 98 |
| Cc1ncsc1-c1ccc(CNC(=O)[C@@H]2C[C@@H](O)CN2C(=O)[C@@H](NC(=O)COCCCCOc2ccc3c(c2)c2c(C(N)=O)cc(-c4c(C)noc4C)cc2n3Cc2ccccc2)C(C)(C)C)cc1 [Example 175] | 0.01 to 0.1 | 92 |
| Cc1ncsc1-c1ccc([C@H](C)NC(=O)[C@@H]2C[C@@H](O)CN2C(=O)[C@@H](NC(=O)CCCCOCCCNC(=O)C[C@@H]2N=C(c3ccc(Cl)cc3)c3c(sc(C)c3C)-n3c(C)nnc32)C(C)(C)C)cc1 [Example 176] | < 0.01 | 90.3 |
| Cc1ncsc1-c1ccc(CNC(=O)[C@@H]2C[C@@H](O)CN2C(=O)[C@@H](C(C)C)n2cc(-c3ccnc(O[C@H]4C[C@@H](NC(=O)C[C@@H]5N=C(c6ccc(Cl)cc6)c6c(sc(C)c6C)-n6c(C)nnc65)C4)c3)cn2)cc1 [Example 177, (2S,4R)-4-hydroxy-N-{[4-(4-methyl-1,3-thiazol-5-yl)phenyl]methyl}-1-[(2R)-3-methyl-2-(4-{2-[(1,3-cis)-3-{2-[(9S)-7-(4-chlorophenyl)-4,5,13-trimethyl-3-thia-1,8,11,12-tetraazatricyclo[8.3.0.0^2,^6]trideca-2(6),4,7,10,12-pentaen-9-yl]acetamido}cyclobutoxy]pyridin-4-yl}-1H-pyrazol-1-yl)butanoyl]pyrrolidine-2-carboxamide] | > 1 | 39.3 |
| Cc1ncsc1-c1ccc(CNC(=O)[C@@H]2C[C@@H](O)CN2C(=O)[C@H](C(C)C)n2cc(-c3ccnc(O[C@H]4C[C@@H](NC(=O)C[C@@H]5N=C(c6ccc(Cl)cc6)c6c(sc(C)c6C)-n6c(C)nnc65)C4)c3)cn2)cc1 [Example 178, (2S,4R)-4-hydroxy-N-{[4-(4-methyl-1,3-thiazol-5-yl)phenyl]methyl}-1-[(2S)-3-methyl-2-(4-{2-[(1,3-cis)-3-{2-[(9S)-7-(4-chlorophenyl)-4,5,13-trimethyl-3-thia-1,8,11,12-tetraazatricyclo[8.3.0.0^2,6]trideca-2(6),4,7,10,12-pentaen-9-yl]acetamido}cyclobutoxy]pyridin-4-yl}-1H-pyrazol-1-yl)butanoyl]pyrrolidine-2-carboxamide] | 0.01 to 0.1 | 99 |
| Cc1ncsc1-c1ccc(CNC(=O)[C@@H]2C[C@@H](O)CN2C(=O)[C@H](C(C)C)n2cc(-c3ccnc(O[C@@H](C)CNC(=O)C[C@@H]4N=C(c5ccc(Cl)cc5)c5c(sc(C)c5C)-n5c(C)nnc54)c3)cn2)cc1 [Example 180] | 0.01 to 0.1 | 98.5 |

More lines, main results first:

| DC50 [µM] | Structure (SMILES) | Emax [%] |
| --- | --- | --- |
| < 0.01 | Cc1ncsc1-c1ccc([C@H](C)NC(=O)[C@@H]2C[C@@H](O)CN2C(=O)[C@@H](NC(=O)c2ccc(OC(C)CCNC(=O)C[C@@H]3N=C(c4ccc(Cl)cc4)c4c(sc(C)c4C)-n4c(C)nnc43)cn2)C(C)(C)C)cc1 (stereo partly drawn) [Example 157] | 97 |
| < 0.01 | Cc1ncsc1-c1ccc([C@H](C)NC(=O)[C@@H]2C[C@@H](O)CN2C(=O)[C@@H](NC(=O)/C=C/c2cccc(O[C@@H](C)CNC(=O)C[C@@H]3N=C(c4ccc(Cl)cc4)c4c(sc(C)c4C)-n4c(C)nnc43)c2)C(C)(C)C)cc1 [Example 158] | 96.5 |
| < 0.01 | Cc1ncsc1-c1ccc([C@H](C)NC(=O)[C@@H]2C[C@@H](O)CN2C(=O)[C@@H](NC(=O)/C=C/c2cccc(O[C@H](C)CNC(=O)C[C@@H]3N=C(c4ccc(Cl)cc4)c4c(sc(C)c4C)-n4c(C)nnc43)c2)C(C)(C)C)cc1 [Example 159] | 96.5 |
| < 0.01 | Cc1ncsc1-c1ccc([C@H](C)NC(=O)[C@@H]2C[C@@H](O)CN2C(=O)[C@@H](NC(=O)/C=C/c2ccc(F)c(O[C@H](C)CNC(=O)C[C@@H]3N=C(c4ccc(Cl)cc4)c4c(sc(C)c4C)-n4c(C)nnc43)c2)C(C)(C)C)cc1 [Example 161] | 97 |
| > 1 | Cc1ncsc1-c1ccc(CNC(=O)[C@@H]2C[C@@H](O)CN2C(=O)[C@@H](C(C)C)n2cc(-c3cccc(OCCNC(=O)C[C@@H]4N=C(c5ccc(Cl)cc5)c5c(sc(C)c5C)-n5c(C)nnc54)c3)cn2)cc1 [Example 162] | 7.62 |
| < 0.01 | Cc1ncsc1-c1ccc(CNC(=O)[C@@H]2C[C@@H](O)CN2C(=O)[C@H](C(C)C)n2cc(-c3cccc(OCCNC(=O)C[C@@H]4N=C(c5ccc(Cl)cc5)c5c(sc(C)c5C)-n5c(C)nnc54)c3)cn2)cc1 [Example 163] | 96.5 |
| < 0.01 | Cc1ncsc1-c1ccc([C@H](C)NC(=O)[C@@H]2C[C@@H](O)CN2C(=O)[C@@H](NC(=O)COCCCOCCCCOc2ccc3c(c2)c2c(C(N)=O)cc(-c4c(C)noc4C)cc2n3Cc2ccccc2)C(C)(C)C)cc1 [Example 166] | 97 |
| > 1 | Cc1ncsc1-c1ccc([C@H](C)NC(=O)[C@H]2C[C@H](O)CN2C(=O)[C@@H](NC(=O)COc2ccc(O[C@H]3C[C@@H](NC(=O)C[C@@H]4N=C(c5ccc(Cl)cc5)c5c(sc(C)c5C)-n5c(C)nnc54)C3)nc2)C(C)(C)C)cc1 [Example 169] | 42.2 |
| < 0.01 | Cc1ncsc1-c1ccc([C@H](C)NC(=O)[C@@H]2C[C@@H](O)CN2C(=O)[C@@H](NC(=O)CCc2ccc(O[C@H]3C[C@@H](NC(=O)C[C@@H]4N=C(c5ccc(Cl)cc5)c5c(sc(C)c5C)-n5c(C)nnc54)C3)nc2)C(C)(C)C)cc1 [Example 171] | 97 |
| < 0.01 | Cc1ncsc1-c1ccc([C@H](C)NC(=O)[C@@H]2C[C@@H](O)CN2C(=O)[C@@H](NC(=O)CCc2ccc(O[C@H]3C[C@H](NC(=O)C[C@@H]4N=C(c5ccc(Cl)cc5)c5c(sc(C)c5C)-n5c(C)nnc54)C3)nc2)C(C)(C)C)cc1 [Example 172] | 96 |
| 0.01 to 0.1 | Cc1ncsc1-c1ccc(CNC(=O)[C@@H]2C[C@@H](O)CN2C(=O)[C@@H](NC(=O)COCCOCCOc2ccc3c(c2)c2c(C(N)=O)cc(-c4c(C)noc4C)cc2n3Cc2ccccc2)C(C)(C)C)cc1 [Example 174] | 96.4 |
| > 1 | Cc1ncsc1-c1ccc(CNC(=O)[C@@H]2C[C@@H](O)CN2C(=O)[C@@H](C(C)C)n2cc(-c3ccnc(O[C@@H](C)CNC(=O)C[C@@H]4N=C(c5ccc(Cl)cc5)c5c(sc(C)c5C)-n5c(C)nnc54)c3)cn2)cc1 [Example 179] | 13.9 |

Source: patent US11554171B2, “Compounds and methods for the targeted degradation of bromodomain-containing proteins” (Arvinas Operations, Inc., priority 2015, dated 2023)
